Laboratory results published in patent publication US8426408B2, “Pyrimidine inhibitors of kinases” (AbbVie Inc., priority 2009, dated 2013).

Tests used:
[1] = biological target: KDR (Homo sapiens, UniProt P35968); test: KDR cellular assay (KDR receptor phosphorylation ELISA); format: cell-based; set-up: expressed in transfected cells; host or cells: 3T3 (embryonic mouse) cells; settings: KDR transfected 3T3 (embryonic mouse) cells, VEGF stimulated; read-out: IC50 inhibition of KDR phosphorylation
How it was run: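 Phospho-KDR measured by capture ELISA (anti-KDR coat, biotinylated detection, streptavidin-HRP, 450 nm) in lysates of KDR-expressing 3T3 mouse fibroblasts. Cells saw compound 20 min at 37° C before 10 min VEGF challenge (100 ng/ml solution); IC50 from non-linear regression of half-log dose series.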

[2] = tested on: NCI-H1299 cells; test: Induction of polyploidy in H1299; format: cell-based, Human; settings: NCI-H1299, 48 hours; for EC15: Homo sapiens, read-out: EC15 (concentration of inhibitor necessary to induce polyploidy in 15% of cells)
How it was run: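 Potency is given as EC15, the inhibitor concentration giving 15% polyploid cells, from log dose-response least-squares analysis. Polyploid cells (nuclear area >750 μ^2, ≥4N) were counted by Hoechst high-content microscopy. H1299 cells had been exposed for 48 h at 37 C in duplicate, then fixed in 3% formalin.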

KDR, sequence (P35968 20-1356): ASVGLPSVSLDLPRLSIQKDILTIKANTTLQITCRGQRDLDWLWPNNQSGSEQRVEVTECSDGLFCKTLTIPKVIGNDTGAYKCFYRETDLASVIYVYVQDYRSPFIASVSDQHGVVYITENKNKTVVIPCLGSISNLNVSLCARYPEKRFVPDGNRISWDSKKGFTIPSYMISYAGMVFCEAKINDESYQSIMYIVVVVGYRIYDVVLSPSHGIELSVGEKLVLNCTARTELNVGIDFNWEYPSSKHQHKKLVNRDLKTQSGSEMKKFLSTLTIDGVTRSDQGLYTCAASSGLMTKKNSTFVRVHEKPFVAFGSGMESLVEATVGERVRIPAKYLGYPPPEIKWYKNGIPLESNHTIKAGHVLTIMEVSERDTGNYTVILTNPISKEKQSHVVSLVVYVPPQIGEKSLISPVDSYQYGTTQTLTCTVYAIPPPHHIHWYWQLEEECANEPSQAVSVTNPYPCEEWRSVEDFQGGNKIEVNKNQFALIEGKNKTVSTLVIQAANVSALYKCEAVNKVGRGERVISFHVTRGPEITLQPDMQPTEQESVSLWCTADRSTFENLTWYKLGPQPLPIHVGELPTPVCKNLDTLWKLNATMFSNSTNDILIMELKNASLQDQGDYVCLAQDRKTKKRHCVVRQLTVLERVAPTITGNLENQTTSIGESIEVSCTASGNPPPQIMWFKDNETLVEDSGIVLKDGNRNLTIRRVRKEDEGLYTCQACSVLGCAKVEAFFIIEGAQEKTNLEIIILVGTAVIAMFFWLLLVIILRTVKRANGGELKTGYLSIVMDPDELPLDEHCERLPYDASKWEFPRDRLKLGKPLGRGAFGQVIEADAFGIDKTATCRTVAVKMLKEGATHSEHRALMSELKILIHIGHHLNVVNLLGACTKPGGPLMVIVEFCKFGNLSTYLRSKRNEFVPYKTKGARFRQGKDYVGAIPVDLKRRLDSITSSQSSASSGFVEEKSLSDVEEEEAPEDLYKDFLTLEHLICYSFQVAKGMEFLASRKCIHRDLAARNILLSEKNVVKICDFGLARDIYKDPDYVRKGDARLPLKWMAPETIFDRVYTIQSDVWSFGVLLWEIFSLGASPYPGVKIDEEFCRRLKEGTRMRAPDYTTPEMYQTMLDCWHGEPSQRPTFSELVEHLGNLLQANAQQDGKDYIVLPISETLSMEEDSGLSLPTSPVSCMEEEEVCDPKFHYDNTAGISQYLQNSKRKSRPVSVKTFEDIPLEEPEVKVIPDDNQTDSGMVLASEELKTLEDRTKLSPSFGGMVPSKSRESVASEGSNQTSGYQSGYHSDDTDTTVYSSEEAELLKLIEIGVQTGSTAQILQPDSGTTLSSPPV

For `Cn1cc(Nc2ncc(C(F)(F)F)c(N[C@@H]3[C@H](C(N)=O)[C@H]4C=C[C@@H]3C4)n2)cn1.Cn1cc(Nc2ncc(C(F)(F)F)c(N[C@H]3[C@@H](C(N)=O)[C@@H]4C=C[C@H]3C4)n2)cn1` (mixture of isomers) [Example 10, (1S,2S,3R,4R)-3-{[2-[(1-methyl-1H-pyrazol-4-yl)amino]-5-(trifluoromethyl)pyrimidin-4-yl]amino}bicyclo[2.2.1]hept-5-ene-2-carboxamide and (1R,2R,3S,4S)-3-{[2-[(1-methyl-1H-pyrazol-4-yl)amino]-5-(trifluoromethyl)pyrimidin-4-yl]amino}bicyclo[2.2.1]hept-5-ene-2-carboxamide], the IC50 [1] was under 100 nM and the “EC15 (concentration of inhibitor necessary to induce polyploidy in 15% of cells)” value [2] was “A (“A” represents an EC15 of less than 0.1 μM)”.

Work on `Cc1c(Nc2ncc(Br)c(N[C@H]3[C@@H](C(N)=O)[C@@H]4C=C[C@H]3C4)n2)cnn1C` [Example 170, (1S,2S,3R,4R)-3-({5-bromo-2-[(1,5-dimethyl-1H-pyrazol-4-yl)amino]pyrimidin-4-yl}amino)bicyclo[2.2.1]hept-5-ene-2-carboxamide] yielded an IC50 [1] of under 100 nM and an EC15 [2] of under 100 nM.

For `CC(C)NC(=O)C1CCCC1Nc1nc(Nc2cnn(C3CCNCC3)c2)ncc1Cl` (racemic) [Example 163, (1S,2R)-2-[(5-chloro-2-{[1-(piperidin-4-yl)-1H-pyrazol-4-yl]amino}pyrimidin-4-yl)amino]-N-isopropylcyclopentanecarboxamide and (1R,2S)-2-[(5-chloro-2-{[1-(piperidin-4-yl)-1H-pyrazol-4-yl]amino}pyrimidin-4-yl)amino]-N-isopropylcyclopentanecarboxamide], the IC50 [1] was 100 to 1000 nM and the “EC15 (concentration of inhibitor necessary to induce polyploidy in 15% of cells)” value [2] was “A (“A” represents an EC15 of less than 0.1 μM)”.

Work on `NC(=O)[C@@H]1[C@H](Nc2nc(Nc3cnn(-c4ccccc4)c3)ncc2Br)[C@H]2C=C[C@@H]1C2` [Example 173, (1S,2S,3R,4R)-3-({5-bromo-2-[(1-phenyl-1H-pyrazol-4-yl)amino]pyrimidin-4-yl}amino)bicyclo[2.2.1]hept-5-ene-2-carboxamide] yielded an IC50 [1] of under 100 nM and an EC15 [2] of under 100 nM.

Work on `Cn1cc(Nc2ncc(C(F)(F)F)c(Nc3ccsc3C(N)=O)n2)cn1` [Example 150, 3-({2-[(1-methyl-1H-pyrazol-4-yl)amino]-5-(trifluoromethyl)pyrimidin-4-yl}amino)thiophene-2-carboxamide] yielded an IC50 [1] of 100 to 1000 nM and an EC15 [2] of under 100 nM.

`CC(C)CCn1cc(Nc2ncc(Cl)c(N[C@H]3[C@@H](C(N)=O)[C@@H]4C=C[C@H]3C4)n2)cn1` [Example 99, (1S,2S,3R,4R)-3-[(5-chloro-2-[1-(3-methylbutyl)-1H-pyrazol-4-yl]aminopyrimidin-4-yl)amino]bicyclo[2.2.1]hept-5-ene-2-carboxamide] was tested, and the IC50 [1] was under 100 nM and the EC15 [2] was under 100 nM.

Work on `Cn1cc(Nc2ncc(C(F)(F)F)c(N[C@H]3[C@@H](C(N)=O)C[C@H]4C[C@@H]3C4(C)C)n2)cn1` [Example 167, (1R,2R,3S,5R)-6,6-dimethyl-2-({2-[(1-methyl-1H-pyrazol-4-yl)amino]-5-(trifluoromethyl)pyrimidin-4-yl}amino)bicyclo[3.1.1]heptane-3-carboxamide] yielded an IC50 [1] of 100 to 1000 nM and an EC15 [2] of under 100 nM.

With “(1S,2R)-2-{[5-chloro-2-({1-[2-(morpholin-4-yl)ethyl]-1H-pyrazol-4-yl}amino)pyrimidin-4-yl]amino}cyclopentanecarboxamide and (1R,2S)-2-{[5-chloro-2-({1-[2-(morpholin-4-yl)ethyl]-1H-pyrazol-4-yl}amino)pyrimidin-4-yl]amino}cyclopentanecarboxamide [Example 137]” the IC50 [1] was 100 to 1000 nM and the “EC15 (concentration of inhibitor necessary to induce polyploidy in 15% of cells)” value [2] was “B (“B” represents an EC15 of between 0.1 μM and 1 μM)”.

With `CS(=O)(=O)CCn1cc(Nc2ncc(Br)c(N[C@H]3[C@@H](C(N)=O)[C@@H]4C=C[C@H]3C4)n2)cn1` [Example 122, (1S,2S,3R,4R)-3-{[5-bromo-2-({1-[2-(methylsulfonyl)ethyl]-1H-pyrazol-4-yl}amino)pyrimidin-4-yl]amino}bicyclo[2.2.1]hept-5-ene-2-carboxamide] the IC50 [1] was under 100 nM and the EC15 [2] was under 100 nM.

`C[C@@H](O)Cn1cc(Nc2ncc(Cl)c(N[C@H]3[C@@H](C(N)=O)[C@@H]4C=C[C@H]3C4)n2)cn1` [Example 105, (1S,2S,3R,4R)-3-{[5-chloro-2-({1-[(2R)-2-hydroxypropyl]-1H-pyrazol-4-yl}amino)pyrimidin-4-yl]amino}bicyclo[2.2.1]hept-5-ene-2-carboxamide] was tested, and the IC50 [1] was under 100 nM and the EC15 [2] was under 100 nM.

Work on `COc1cccc(CCn2cc(Nc3ncc(Br)c(N[C@H]4[C@@H](C(N)=O)[C@@H]5C=C[C@H]4C5)n3)cn2)c1` [Example 160, (1S,2S,3R,4R)-3-{[5-bromo-2-({1-[2-(3-methoxyphenyl)ethyl]-1H-pyrazol-4-yl}amino)pyrimidin-4-yl]amino}bicyclo[2.2.1]hept-5-ene-2-carboxamide] yielded an IC50 [1] of under 100 nM and an EC15 [2] of under 100 nM.

Work on `NC(=O)[C@@H]1[C@H](Nc2nc(Nc3cnn(Cc4ccccc4)c3)ncc2Br)[C@H]2C=C[C@@H]1C2` [Example 149, (1S,2S,3R,4R)-3-({2-[(1-benzyl-1H-pyrazol-4-yl)amino]-5-bromopyrimidin-4-yl}amino)bicyclo[2.2.1]hept-5-ene-2-carboxamide] yielded an IC50 [1] of under 100 nM and an EC15 [2] of under 100 nM.

For `COc1cccc(Cn2cc(Nc3ncc(Cl)c(N[C@H]4[C@@H](C(N)=O)[C@@H]5C=C[C@H]4C5)n3)cn2)c1` [Example 155, (1S,2S,3R,4R)-3-[(5-chloro-2-{[1-(3-methoxybenzyl)-1H-pyrazol-4-yl]amino}pyrimidin-4-yl)amino]bicyclo[2.2.1]hept-5-ene-2-carboxamide], the IC50 [1] was under 100 nM and the EC15 [2] was under 100 nM.

For `Cc1nn(C)cc1Nc1ncc(Cl)c(N[C@H]2[C@@H](C(N)=O)[C@@H]3C=C[C@H]2C3)n1` [Example 134, (1S,2S,3R,4R)-3-({5-chloro-2-[(1,3-dimethyl-1H-pyrazol-4-yl)amino]pyrimidin-4-yl}amino)bicyclo[2.2.1]hept-5-ene-2-carboxamide], the IC50 [1] was 100 to 1000 nM and the EC15 [2] was under 100 nM.

`CC(C)CCn1cc(Nc2ncc(Br)c(N[C@H]3[C@@H](C(N)=O)[C@@H]4C=C[C@H]3C4)n2)cn1` [Example 111, (1S,2S,3R,4R)-3-[(5-bromo-2-{[1-(3-methylbutyl)-1H-pyrazol-4-yl]amino}pyrimidin-4-yl)amino]bicyclo[2.2.1]hept-5-ene-2-carboxamide] gave an IC50 [1] of under 100 nM and an EC15 [2] of under 100 nM.

`Cn1cc(Nc2ncc([N+](=O)[O-])c(N[C@H]3[C@@H](C(N)=O)[C@@H]4C=C[C@H]3C4)n2)cn1` [Example 139, (1S,2S,3R,4R)-3-({2-[(1-methyl-1H-pyrazol-4-yl)amino]-5-nitropyrimidin-4-yl}amino)bicyclo[2.2.1]hept-5-ene-2-carboxamide] was tested, and the IC50 [1] was 100 to 1000 nM and the EC15 [2] was under 100 nM.

With `Cn1cc(Nc2ncc(Cl)c(N[C@H]3[C@@H](C(N)=O)C[C@H]4C[C@@H]3C4(C)C)n2)cn1` [Example 165, (1R,2R,3S,5R)-2-({5-chloro-2-[(1-methyl-1H-pyrazol-4-yl)amino]pyrimidin-4-yl}amino)-6,6-dimethylbicyclo[3.1.1]heptane-3-carboxamide] the IC50 [1] was 100 to 1000 nM and the EC15 [2] was under 100 nM.

`CCn1cc(Nc2ncc(Cl)c(NC3C4CCC(O4)C3C(N)=O)n2)cn1` (racemic) [Example 142, (1S,2R,3S,4R)-3-({5-chloro-2-[(1-ethyl-1H-pyrazol-4-yl)amino]pyrimidin-4-yl}amino)-7-oxabicyclo[2.2.1]heptane-2-carboxamide and (1R,2S,3R,4S)-3-({5-chloro-2-[(1-ethyl-1H-pyrazol-4-yl)amino]pyrimidin-4-yl}amino)-7-oxabicyclo[2.2.1]heptane-2-carboxamide] was tested, and the IC50 [1] was 100 to 1000 nM and the “EC15 (concentration of inhibitor necessary to induce polyploidy in 15% of cells)” value [2] was “B (“B” represents an EC15 of between 0.1 μM and 1 μM)”.

For `Cn1cc(Nc2ncc(Br)c(Nc3ccccc3C3(O)CCC3)n2)cn1` [Example 132, 1-[2-({5-bromo-2-[(1-methyl-1H-pyrazol-4-yl)amino]pyrimidin-4-yl}amino)phenyl]cyclobutanol], the IC50 [1] was 100 to 1000 nM and the EC15 [2] was 100 to 1000 nM.

`CCn1cc(Nc2ncc(C(F)(F)F)c(N[C@H]3[C@@H](C(N)=O)C[C@H]4C[C@@H]3C4(C)C)n2)cn1` [Example 168, (1R,2R,3S,5R)-2-({2-[(1-ethyl-1H-pyrazol-4-yl)amino]-5-(trifluoromethyl)pyrimidin-4-yl}amino)-6,6-dimethylbicyclo[3.1.1]heptane-3-carboxamide] showed an IC50 [1] of 100 to 1000 nM and an EC15 [2] of under 100 nM.

Work on `CC(=O)N1CCC(n2cc(Nc3ncc(Cl)c(N[C@H]4[C@@H](C(N)=O)[C@@H]5C=C[C@H]4C5)n3)cn2)CC1` [Example 92, (1S,2S,3R,4R)-3-[(2-{[1-(1-acetylpiperidin-4-yl)-1H-pyrazol-4-yl]amino}-5-chloropyrimidin-4-yl)amino]bicyclo[2.2.1]hept-5-ene-2-carboxamide] yielded an IC50 [1] of 100 to 1000 nM and an EC15 [2] of under 100 nM.

Work on `COCCOCCn1cc(Nc2ncc(Cl)c(N[C@H]3[C@@H](C(N)=O)[C@@H]4C=C[C@H]3C4)n2)cn1` [Example 100, (1S,2S,3R,4R)-3-{[5-chloro-2-({1-[2-(2-methoxyethoxy)ethyl]-1H-pyrazol-4-yl}amino)pyrimidin-4-yl]amino}bicyclo[2.2.1]hept-5-ene-2-carboxamide] yielded an IC50 [1] of under 100 nM and an EC15 [2] of under 100 nM.

`CC(C)n1cc(Nc2ncc(Br)c(N[C@H]3[C@@H](C(N)=O)[C@@H]4C=C[C@H]3C4)n2)cn1` [Example 112, (1S,2S,3R,4R)-3-({5-bromo-2-[(1-isopropyl-1H-pyrazol-4-yl)amino]pyrimidin-4-yl}amino)bicyclo[2.2.1]hept-5-ene-2-carboxamide] showed an IC50 [1] of under 100 nM and an EC15 [2] of under 100 nM.
